In PubChem BioAssay (NCI):
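Cells were grown in 96-well plates and exposed to each compound for 48 hours at five concentrations; endpoints were interpolated linearly between bracketing concentrations, or set to the highest concentration if not reached. Definition used: TGI = concentration required for complete inhibition of growth.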

Tests used:
Assay in all cases: NCI-60 cell line screen, 48 h
786-0 renal = tested on: 786-0 renal
A498 renal = tested on: A498 renal
A549 NSCLC = tested on: A549 NSCLC
ACHN renal = tested on: ACHN renal
BT-549 breast = tested on: BT-549 breast
CAKI-1 renal = tested on: CAKI-1 renal
CCRF-CEM leukemia = tested on: CCRF-CEM leukemia
COLO 205 colon = tested on: COLO 205 colon
DLD-1 colon = tested on: DLD-1 colon
DMS 114 small cell lung = tested on: DMS 114 small cell lung
DMS 273 small cell lung = tested on: DMS 273 small cell lung
DU-145 prostate = tested on: DU-145 prostate
EKVX NSCLC = tested on: EKVX NSCLC
HCC-2998 colon = tested on: HCC-2998 colon
HCT-116 colon = tested on: HCT-116 colon
HCT-15 colon = tested on: HCT-15 colon
HL-60(TB) leukemia = tested on: HL-60(TB) leukemia
HOP-18 NSCLC = tested on: HOP-18 NSCLC
HOP-62 NSCLC = tested on: HOP-62 NSCLC
HOP-92 NSCLC = tested on: HOP-92 NSCLC
HS 578T breast = tested on: HS 578T breast
HT29 colon = tested on: HT29 colon
IGROV1 ovarian = tested on: IGROV1 ovarian
K-562 leukemia = tested on: K-562 leukemia
KM12 colon = tested on: KM12 colon
KM20L2 colon = tested on: KM20L2 colon
LOX IMVI melanoma = tested on: LOX IMVI melanoma
LXFL 529 NSCLC = tested on: LXFL 529 NSCLC
M14 melanoma = tested on: M14 melanoma
M19-MEL melanoma = tested on: M19-MEL melanoma
MALME-3M melanoma = tested on: MALME-3M melanoma
MCF7 breast = tested on: MCF7 breast
MDA-MB-231 breast = tested on: MDA-MB-231 breast
MDA-MB-435 = tested on: MDA-MB-435
MDA-N = tested on: MDA-N
MOLT-4 leukemia = tested on: MOLT-4 leukemia
NCI-H226 lung = tested on: NCI-H226 lung
NCI-H23 lung = tested on: NCI-H23 lung
NCI-H460 lung = tested on: NCI-H460 lung
NCI-H522 lung = tested on: NCI-H522 lung
OVCAR-3 ovarian = tested on: OVCAR-3 ovarian
OVCAR-4 ovarian = tested on: OVCAR-4 ovarian
OVCAR-5 ovarian = tested on: OVCAR-5 ovarian
OVCAR-8 ovarian = tested on: OVCAR-8 ovarian
PC-3 prostate = tested on: PC-3 prostate
RPMI-8226 leukemia = tested on: RPMI-8226 leukemia
RXF 393 renal = tested on: RXF 393 renal
RXF-631 renal = tested on: RXF-631 renal
SF-268 CNS = tested on: SF-268 CNS
SF-295 CNS = tested on: SF-295 CNS
SF-539 CNS = tested on: SF-539 CNS
SK-MEL-2 melanoma = tested on: SK-MEL-2 melanoma
SK-MEL-28 melanoma = tested on: SK-MEL-28 melanoma
SK-MEL-5 melanoma = tested on: SK-MEL-5 melanoma
SK-OV-3 ovarian = tested on: SK-OV-3 ovarian
SN12C renal = tested on: SN12C renal
SNB-19 CNS = tested on: SNB-19 CNS
SNB-75 CNS = tested on: SNB-75 CNS
SNB-78 CNS = tested on: SNB-78 CNS
SR leukemia = tested on: SR leukemia
SW-620 colon = tested on: SW-620 colon
T-47D breast = tested on: T-47D breast
TK-10 renal = tested on: TK-10 renal
U251 CNS = tested on: U251 CNS
UACC-257 melanoma = tested on: UACC-257 melanoma
UACC-62 melanoma = tested on: UACC-62 melanoma
UO-31 renal = tested on: UO-31 renal
XF 498 CNS = tested on: XF 498 CNS

O=C1C(Cl)=C(Cl)C(=O)N1c1ccc(F)cc1
TGI (786-0 renal): 31 µM
TGI (A498 renal): > 100 µM
TGI (A549 NSCLC): > 100 µM
TGI (ACHN renal): 36.3 µM
TGI (BT-549 breast): 30.1 µM
TGI (CAKI-1 renal): 21 µM
TGI (CCRF-CEM leukemia): 16.5 µM
TGI (COLO 205 colon): 35.1 µM
TGI (DLD-1 colon): 41 µM
TGI (DMS 114 small cell lung): 39.4 µM
TGI (DMS 273 small cell lung): > 62 µM
TGI (DU-145 prostate): > 100 µM
TGI (EKVX NSCLC): 40.6 µM
TGI (HCC-2998 colon): 48.1 µM
TGI (HCT-116 colon): > 54.5 µM
TGI (HCT-15 colon): 34 µM
TGI (HL-60(TB) leukemia): 11.5 µM
TGI (HOP-18 NSCLC): 43.1 µM
TGI (HOP-62 NSCLC): 98.7 µM
TGI (HOP-92 NSCLC): 35.8 µM
TGI (HS 578T breast): 55.4 µM
TGI (HT29 colon): 49.8 µM
TGI (IGROV1 ovarian): 43.6 µM
TGI (K-562 leukemia): > 51.1 µM
TGI (KM12 colon): 50.2 µM
TGI (KM20L2 colon): 52.8 µM
TGI (LOX IMVI melanoma): 32.6 µM
TGI (LXFL 529 NSCLC): 32.1 µM
TGI (M14 melanoma): 39.5 µM
TGI (M19-MEL melanoma): 41.8 µM
TGI (MALME-3M melanoma): 32.5 µM
TGI (MCF7 breast): 42.9 µM
TGI (MDA-MB-231 breast): 33 µM
TGI (MDA-MB-435): 34.9 µM
TGI (MDA-N): 48.7 µM
TGI (MOLT-4 leukemia): 34.8 µM
TGI (NCI-H226 lung): > 77.7 µM
TGI (NCI-H23 lung): 36.9 µM
TGI (NCI-H460 lung): > 100 µM
TGI (NCI-H522 lung): 5.95 µM
TGI (OVCAR-3 ovarian): 32.4 µM
TGI (OVCAR-4 ovarian): 23.8 µM
TGI (OVCAR-5 ovarian): 41 µM
TGI (OVCAR-8 ovarian): 45.1 µM
TGI (PC-3 prostate): 29.8 µM
TGI (RPMI-8226 leukemia): 59.7 µM
TGI (RXF 393 renal): 38.5 µM
TGI (RXF-631 renal): > 72.6 µM
TGI (SF-268 CNS): > 77.3 µM
TGI (SF-295 CNS): > 100 µM
TGI (SF-539 CNS): 51.9 µM
TGI (SK-MEL-2 melanoma): > 72.8 µM
TGI (SK-MEL-28 melanoma): 37.1 µM
TGI (SK-MEL-5 melanoma): > 67.9 µM
TGI (SK-OV-3 ovarian): > 69.2 µM
TGI (SN12C renal): 34.9 µM
TGI (SNB-19 CNS): > 73.2 µM
TGI (SNB-75 CNS): 20.8 µM
TGI (SNB-78 CNS): 71.3 µM
TGI (SR leukemia): 47.2 µM
TGI (SW-620 colon): 34.1 µM
TGI (T-47D breast): 51.2 µM
TGI (TK-10 renal): 35.1 µM
TGI (U251 CNS): 53.2 µM
TGI (UACC-257 melanoma): > 100 µM
TGI (UACC-62 melanoma): 31.7 µM
TGI (UO-31 renal): 48.8 µM
TGI (XF 498 CNS): 34.9 µM

O=[N+]([O-])c1ccc(C2SCc3nc4ccccc4n32)cc1 (stereo not drawn)
TGI (786-0 renal): > 100 µM
TGI (A498 renal): > 100 µM
TGI (A549 NSCLC): > 100 µM
TGI (ACHN renal): > 100 µM
TGI (CAKI-1 renal): > 100 µM
TGI (CCRF-CEM leukemia): > 100 µM
TGI (COLO 205 colon): > 100 µM
TGI (DLD-1 colon): > 100 µM
TGI (DMS 114 small cell lung): > 100 µM
TGI (DMS 273 small cell lung): > 100 µM
TGI (EKVX NSCLC): > 100 µM
TGI (HL-60(TB) leukemia): > 100 µM
TGI (HOP-18 NSCLC): > 100 µM
TGI (HOP-62 NSCLC): > 100 µM
TGI (HOP-92 NSCLC): 91.3 µM
TGI (HT29 colon): > 100 µM
TGI (IGROV1 ovarian): 60.2 µM
TGI (K-562 leukemia): > 100 µM
TGI (KM12 colon): > 100 µM
TGI (KM20L2 colon): > 100 µM
TGI (LOX IMVI melanoma): > 100 µM
TGI (LXFL 529 NSCLC): > 100 µM
TGI (M19-MEL melanoma): > 100 µM
TGI (MALME-3M melanoma): > 100 µM
TGI (MOLT-4 leukemia): > 100 µM
TGI (NCI-H226 lung): > 100 µM
TGI (NCI-H23 lung): > 100 µM
TGI (NCI-H460 lung): > 100 µM
TGI (OVCAR-4 ovarian): > 100 µM
TGI (OVCAR-5 ovarian): > 100 µM
TGI (OVCAR-8 ovarian): > 100 µM
TGI (RXF 393 renal): > 100 µM
TGI (RXF-631 renal): > 100 µM
TGI (SF-268 CNS): > 100 µM
TGI (SF-295 CNS): > 100 µM
TGI (SF-539 CNS): > 100 µM
TGI (SK-MEL-2 melanoma): > 100 µM
TGI (SK-MEL-28 melanoma): > 100 µM
TGI (SK-MEL-5 melanoma): 39.2 µM
TGI (SK-OV-3 ovarian): > 100 µM
TGI (SN12C renal): > 100 µM
TGI (SNB-19 CNS): > 100 µM
TGI (SNB-78 CNS): > 100 µM
TGI (SR leukemia): > 100 µM
TGI (SW-620 colon): > 100 µM
TGI (TK-10 renal): > 100 µM
TGI (U251 CNS): > 100 µM
TGI (UACC-257 melanoma): > 100 µM
TGI (UACC-62 melanoma): > 100 µM
TGI (UO-31 renal): > 100 µM
TGI (XF 498 CNS): 80.6 µM

COc1cc([C@@H]2OC(=O)C3C2C(=O)O[C@H]3c2ccc(O)c(OC)c2)ccc1O (stereo partly drawn)
TGI (786-0 renal): > 100 µM
TGI (A498 renal): > 100 µM
TGI (A549 NSCLC): > 100 µM
TGI (ACHN renal): > 100 µM
TGI (CAKI-1 renal): > 100 µM
TGI (CCRF-CEM leukemia): > 100 µM
TGI (COLO 205 colon): > 100 µM
TGI (DLD-1 colon): > 100 µM
TGI (DMS 114 small cell lung): > 100 µM
TGI (DMS 273 small cell lung): > 100 µM
TGI (HCC-2998 colon): > 100 µM
TGI (HCT-116 colon): > 100 µM
TGI (HCT-15 colon): > 100 µM
TGI (HOP-18 NSCLC): > 100 µM
TGI (HOP-62 NSCLC): > 100 µM
TGI (HOP-92 NSCLC): > 100 µM
TGI (HT29 colon): > 100 µM
TGI (IGROV1 ovarian): > 100 µM
TGI (K-562 leukemia): > 100 µM
TGI (KM12 colon): > 100 µM
TGI (KM20L2 colon): > 100 µM
TGI (LOX IMVI melanoma): > 100 µM
TGI (LXFL 529 NSCLC): > 100 µM
TGI (M14 melanoma): > 100 µM
TGI (M19-MEL melanoma): > 100 µM
TGI (MALME-3M melanoma): > 100 µM
TGI (MOLT-4 leukemia): > 100 µM
TGI (NCI-H226 lung): > 100 µM
TGI (NCI-H23 lung): > 100 µM
TGI (NCI-H460 lung): > 100 µM
TGI (OVCAR-3 ovarian): > 100 µM
TGI (OVCAR-4 ovarian): > 100 µM
TGI (OVCAR-5 ovarian): > 100 µM
TGI (OVCAR-8 ovarian): > 100 µM
TGI (RPMI-8226 leukemia): > 100 µM
TGI (RXF 393 renal): > 100 µM
TGI (RXF-631 renal): > 100 µM
TGI (SF-268 CNS): > 100 µM
TGI (SF-295 CNS): > 100 µM
TGI (SF-539 CNS): > 100 µM
TGI (SK-MEL-28 melanoma): > 100 µM
TGI (SK-MEL-5 melanoma): > 100 µM
TGI (SK-OV-3 ovarian): > 100 µM
TGI (SN12C renal): > 100 µM
TGI (SNB-19 CNS): > 100 µM
TGI (SNB-75 CNS): > 100 µM
TGI (SNB-78 CNS): > 100 µM
TGI (SR leukemia): > 100 µM
TGI (SW-620 colon): > 100 µM
TGI (TK-10 renal): > 100 µM
TGI (U251 CNS): > 100 µM
TGI (UACC-257 melanoma): > 100 µM
TGI (UACC-62 melanoma): > 100 µM
TGI (UO-31 renal): > 100 µM
